Usually IC50 stands for the concentration at which inhibition is half-maximal.

IC50 data for four compounds are collected here from US4692438A, “Pyridazo-diazepines, diazocines, and -triazepines having anti-hypertensive activity” (Hoffmann-La Roche Inc., priority 1984, dated 1987).

SMILES strings stand for the structures.

The test has as its target T1, angiotensin converting enzyme (Oryctolagus cuniculus, UniProt P12822).
T1 sequence (P12822 34-1310): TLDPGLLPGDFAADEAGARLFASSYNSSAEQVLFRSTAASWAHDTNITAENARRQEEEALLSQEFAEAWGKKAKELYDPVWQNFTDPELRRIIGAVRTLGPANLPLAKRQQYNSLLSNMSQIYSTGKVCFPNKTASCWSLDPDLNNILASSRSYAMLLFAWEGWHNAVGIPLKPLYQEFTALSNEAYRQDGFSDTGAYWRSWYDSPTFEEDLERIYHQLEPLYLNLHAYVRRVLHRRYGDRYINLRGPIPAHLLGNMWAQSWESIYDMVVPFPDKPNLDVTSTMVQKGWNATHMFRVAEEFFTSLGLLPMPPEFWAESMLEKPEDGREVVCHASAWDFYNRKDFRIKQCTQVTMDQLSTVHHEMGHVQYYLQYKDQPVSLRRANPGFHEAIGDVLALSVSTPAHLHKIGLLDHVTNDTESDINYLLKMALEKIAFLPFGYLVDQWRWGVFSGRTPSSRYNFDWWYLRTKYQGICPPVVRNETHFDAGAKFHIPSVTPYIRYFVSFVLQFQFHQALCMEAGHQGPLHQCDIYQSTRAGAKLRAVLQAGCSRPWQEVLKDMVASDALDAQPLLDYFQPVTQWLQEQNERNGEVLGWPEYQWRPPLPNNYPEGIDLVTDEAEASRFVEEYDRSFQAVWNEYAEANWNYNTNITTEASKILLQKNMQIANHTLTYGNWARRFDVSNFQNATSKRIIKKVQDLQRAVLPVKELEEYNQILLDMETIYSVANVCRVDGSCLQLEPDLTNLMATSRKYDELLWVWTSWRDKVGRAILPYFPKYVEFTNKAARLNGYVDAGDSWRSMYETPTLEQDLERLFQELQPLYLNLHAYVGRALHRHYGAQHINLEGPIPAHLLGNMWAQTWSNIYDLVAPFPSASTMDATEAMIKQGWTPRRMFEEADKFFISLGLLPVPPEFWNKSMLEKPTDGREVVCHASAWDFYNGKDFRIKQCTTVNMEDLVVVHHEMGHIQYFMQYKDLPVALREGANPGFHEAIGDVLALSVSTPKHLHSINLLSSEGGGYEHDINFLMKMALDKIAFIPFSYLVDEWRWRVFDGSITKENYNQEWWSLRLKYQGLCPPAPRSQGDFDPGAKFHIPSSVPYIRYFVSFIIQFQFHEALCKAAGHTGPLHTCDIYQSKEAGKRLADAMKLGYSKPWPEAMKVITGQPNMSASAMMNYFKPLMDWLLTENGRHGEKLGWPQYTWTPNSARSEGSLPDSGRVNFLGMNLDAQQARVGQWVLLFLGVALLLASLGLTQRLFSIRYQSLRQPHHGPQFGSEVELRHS
The experiment in a line: in vitro inhibition of angiotensin converting enzyme (cleavage of hippuryl-histidyl-leucine). Type of test: biochemical. The following applies: substrate hippuryl-histidyl-leucine 2 mM; potassium phosphate buffer pH 8.3, 100 mM; NaCl 300 mM; 24 minutes at 37° C. On the procedure: The activity of the compounds of formula I and the aforementioned salts in inhibiting angiotensin converting enzyme in vitro can be determined by the following test.
The method used is based on the method of Cushman and Cheung (Biochem. Pharmacol., 20. 1637-1648) incorporating the modifications introduced by Hayakari et al (Anal. Biochem., 84. 361-369). The substrate, which is hippuryl-histidyl-leucine, 2 mM, is incubated with angiotensin converting enzyme in the presence or absence of various concentrations of test substance in potassium phosphate buffer (pH 8.3; 100 mM) containing sodium chloride (300 mM) for 24 minutes at 37° C. (total value 500 μl). If the test substance is an ester, it is appropriate to cleave it by means of hog liver esterase before carrying out the test. The reaction is terminated by the addition of 3 ml of potassium phosphate buffer (pH 8.3; 200 mM) at 0° C. 2,4,6-Trichloro-s-triazine (3%) in 1.5 ml of dioxane and the mixture is agitated until the yellow chromophore has developed fully. The samples are then centrifuged to remove any precipitate which has formed. The yellow chromophore formed by the reaction of the 2,4,6-trichloro-s-triazine with free hippuric acid is measured spectrophoto metrically at 382 nm. The IC50 values are defined as the concentration of test substance which reduces by 50% the cleavage of hippuryl-histidyl-leucine by antiotensin converting enzyme under the aforementioned conditions.
The results obtained in the foregoing test using representative compounds of formula I as the test substance are compiled in the following Table: […]
As to `O=C(O)[C@@H]1CCCN2CCC[C@H](CS)C(=O)N12` [Compound B, octahydro-9(S)-mercaptomethyl-10-oxo-pyridazo[1,2-a][1,2]diazepine-1(S)-carboxylic acid], the 50% inhibitory concentration (IC50) came out at 2.6 nM.
`O=C(O)[C@@H]1CCCN2C(=O)CC[C@H](CS)C(=O)N12` [Compound A, octahydro-9(S)-mercaptomethyl-6,10-dioxo-6H-pyridazo[1,2-a][1,2]diazepine-1(S)-carboxylic acid]: the IC50 stood at 4 nM.
With `O=C(O)[C@@H]1CCCN2C(=O)CN(Cc3ccccc3)C(CS)C(=O)N12` (single isomer, unassigned) [Compound D] the figure was 51 nM.
Then `O=C(O)[C@@H]1CCCN2C(=O)CCCC(CS)C(=O)N12` (stereo partly drawn) [Compound C, decahydro-10(R,S)-mercaptomethyl-6,11-dioxo-6H-pyridazo[1,2-a][1,2]diazocine-1(S)-carboxylic acid], with 19 nM.
